These compounds were tested on human cells, HSE-luciferase heat shock reporter (assay: HSE-luciferase reporter activators – cell-based (AID 1611)). Settings: measured here: HSE reporter induction potency.
Work on CC(COc1ccccc1)NC(C)[C@H](O)c1ccc(O)cc1 (stereo partly specified) yielded an EC50 of 4.3 µM. In the case of CC[C@H]1OC(=O)[C@H](C)[C@@H](O[C@H]2C[C@@](C)(OC)[C@@H](O)[C@H](C)O2)[C@H](C)[C@@H](O[C@@H]2O[C@H](C)C[C@H](N(C)C)[C@H]2O)[C@](C)(O)C[C@@H](C)CN(C)[C@H](C)[C@@H](O)[C@]1(C)O, the EC50 is reported as 4.6 µM. In the case of C[C@H]1O[C@@H](O[C@H]2[C@@H](O)C[C@H](O[C@H]3[C@@H](O)C[C@H](O[C@H]4CC[C@]5(C)C6CC[C@]7(C)[C@@H](C8=CC(=O)OC8)CC[C@]7(O)C6CC[C@@H]5C4)O[C@@H]3C)O[C@@H]2C)C[C@H](O)[C@@H]1O (stereo partly specified), the EC50 is reported as 4 µM. CC(=O)O[C@]1(C(C)=O)CCC2C3C=C(Cl)C4=CC(=O)[C@@H]5C[C@@H]5[C@]4(C)C3CC[C@@]21C (stereo partly specified) was tested, and the EC50 was 4.7 µM. For O=C1c2ccccc2C(=O)C1c1ccccc1, the EC50 was 4.6 µM. Cc1ccc(C(=O)c2ccc(CC(=O)O)n2C)cc1 gave an EC50 of 5 µM.

From PubChem BioAssay AID1611 (NINDS Approved Drug Screening Program, 2009)
